Laboratory results: patent US12257256B2, “Compositions and methods for inhibiting type 1 collagen production” (Florida State University Research Foundation, Inc., priority 2020, dated 2025)

Columns and labels:
LARP6/5′SL RNA complex = biological target: T1, LARP6/5′SL RNA complex (Homo sapiens, UniProt Q9BRS8); assay: Gel mobility shift: purified/recombinant LARP6 binding to 5′ stem-loop RNA in vitro; conditions: recombinant LARP6, electrophoretic mobility shift assay, FIG. 12
T1 sequence (Q9BRS8 1-491): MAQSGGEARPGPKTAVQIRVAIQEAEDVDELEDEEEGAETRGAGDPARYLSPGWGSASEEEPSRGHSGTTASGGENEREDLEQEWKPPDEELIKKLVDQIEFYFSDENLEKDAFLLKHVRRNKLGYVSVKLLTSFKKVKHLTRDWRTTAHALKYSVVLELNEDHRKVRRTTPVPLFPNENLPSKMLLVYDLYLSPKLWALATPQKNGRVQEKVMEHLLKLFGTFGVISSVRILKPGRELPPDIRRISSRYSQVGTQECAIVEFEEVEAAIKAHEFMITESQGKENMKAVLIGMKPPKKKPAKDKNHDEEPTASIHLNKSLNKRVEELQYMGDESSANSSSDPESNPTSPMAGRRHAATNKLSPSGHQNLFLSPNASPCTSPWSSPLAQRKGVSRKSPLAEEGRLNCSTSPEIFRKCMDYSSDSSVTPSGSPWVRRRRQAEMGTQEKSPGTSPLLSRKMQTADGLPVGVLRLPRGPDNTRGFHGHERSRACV
Protocol: Next, the inhibition of LARP6 binding was tested by gel mobility shift experiments in which binding of purified LARP6 to 5′SL RNA was resolved as protein/RNA complex in gel electrophoresis.
To assess the efficacy of CID 71314610 in inhibiting LARP6 binding to its target sequence, the 5′ stem-loop of type I collagen mRNAs, recombinant LARP6 protein was added to 5′ stem-loop RNA in vitro and CID 71314610 was added at nano-M concentrations to the reaction. The formation of LARP6/RNA complex was analyzed by electrophoretic mobility shift assay.

[1] = tested on: type I collagen secretion by human lung fibroblasts; assay: Type I collagen secretion by human lung fibroblasts (western blot of medium); format: cell-based
Protocol: Based on the ability of the cefixime preparation 1 component to inhibit LARP6/5′SL interaction, cefixime preparation 2 was tested to inhibit type 1 collagen production by human lung fibroblasts. The cells were treated with cefixime preparation 2 in a range of concentrations for 18 hours. The cellular medium was changed and the accumulation of type I collagen into the fresh medium was measured after 3 hours. This provided an estimate of the rate by which the cells can secrete type I collagen. […] At 50 μM, secretion of type I collagen was reduced by about 50%. At 100 μM it was reduced by about 80%. […] This provided evidence that a component of commercial cefixime preparations can act as antifibrotic drugs. Human lung fibroblasts are responsible for lung fibrosis. These cells were cultured in vitro and CID 71314610 was added to the cellular medium at 0.5-50 μM. After overnight incubation the medium was changed and secretion of type I collagen into the fresh medium was analyzed by western blot. The rate of collagen secretion into the medium is a measure of the profibrotic activity of cells. Type I collagen is composed of two polypeptides, α1(I) and α2(I), so both were analyzed. […] In three independent experiments the expression of α1(I) and α2(I) polypeptides was normalized to the expression of fibronectin and plotted as function of CID 71314610 concentration (FIG. 13, bottom panel).

[2] = tested on: fibronectin secretion by human lung fibroblasts; assay: Fibronectin secretion by human lung fibroblasts (western blot, specificity control); format: cell-based; conditions: same treatment as collagen read-out
Protocol: At 50 μM, secretion of type I collagen was reduced by about 50%. At 100 μM it was reduced by about 80%. […] This provided evidence that a component of commercial cefixime preparations can act as antifibrotic drugs.
Human lung fibroblasts are responsible for lung fibrosis. These cells were cultured in vitro and CID 71314610 was added to the cellular medium at 0.5-50 μM. After overnight incubation the medium was changed and secretion of type I collagen into the fresh medium was analyzed by western blot. The rate of collagen secretion into the medium is a measure of the profibrotic activity of cells. Type I collagen is composed of two polypeptides, α1(I) and α2(I), so both were analyzed. […] In three independent experiments the expression of α1(I) and α2(I) polypeptides was normalized to the expression of fibronectin and plotted as function of CID 71314610 concentration (FIG. 13, bottom panel).

purified LARP6 protein = biological target: T2, purified LARP6 protein (Homo sapiens, UniProt Q9BRS8); assay: Affinity binding of commercial cefixime preparation to purified LARP6, elution and mass spectrometry; conditions: FIG. 11
T2 sequence (Q9BRS8 1-491): T1 sequence (Q9BRS8 1-491)
Excerpt: The component with antifibrotic activity in the commercial cefixime preparations was identified by affinity binding of the commercial cefixime preparations to the purified LARP6 protein, followed by elution of the bound molecular species and their identification by mass spectrometry. […] This component has two diastereomer isoforms which were present in miniscule amounts in the commercial cefixime preparations, but both were sequestered by LARP6 protein.

dissociation of LARP6/RNA complexes (LARP6/5′SL RNA complex; 50 nM): 50%
dissociation of LARP6/RNA complexes (LARP6/5′SL RNA complex; 100 nM): ~90%
fraction of input present in cefixime preparation bound by LARP6 (purified LARP6 protein; one diastereomer): 50%
fraction of input present in cefixime preparation bound by LARP6 (purified LARP6 protein; the other diastereomer): 100%
Compound: CC1OC(=O)C2=C1CS[C@H](CNC(=O)/C(=N\OCC(=O)O)c1csc(N)n1)N2 (mixture of isomers) [CID 71314610, 2-[[[(Z)-1-(2-Aminothiazol-4-yl)-2-[[[(2R,5RS)-5-methyl-7-oxo-1,2,5,7-tetrahydro-4H-furo[3,4-d][1,3]thiazin-2-yl]methyl]amino]-2-oxoethylidene]amino]oxy]acetic acid]
secretion of α1(I) and α2(I) collagen polypeptides ([1]; 0.5-50 μM, overnight incubation, FIG. 13 upper panel): inhibited by CID 71314610 in the concentration dependent manner
concentration with highly statistically significant inhibition of both polypeptides comprising type I collagen ([1]; three independent experiments, normalized to fibronectin, FIG. 13 bottom panel): 5 µM
secretion of fibronectin [2]: not affected
